Results: ChEMBL document CHEMBL1139497, “The effects of conformational constraints and steric bulk in the amino acid moiety of philanthotoxins on AMPAR antagonism” (J Med Chem, 2005)
pIC50: −log10 of the molar value.

These compounds were tested against Glutamate receptor ionotropic, AMPA (Rattus norvegicus, UniProt P19491+P19492+P19493+P19490) (assay: Inhibition of kainate-induced currents of rat ionotropic glutamate receptor AMPA expressed in Xenopus laevis oocytes; not active). Details: oocyte; call rule not given here.
Glutamate receptor ionotropic, AMPA (Rattus norvegicus, UniProt P19491+P19492+P19493+P19490), sequence (P19491 whole entry): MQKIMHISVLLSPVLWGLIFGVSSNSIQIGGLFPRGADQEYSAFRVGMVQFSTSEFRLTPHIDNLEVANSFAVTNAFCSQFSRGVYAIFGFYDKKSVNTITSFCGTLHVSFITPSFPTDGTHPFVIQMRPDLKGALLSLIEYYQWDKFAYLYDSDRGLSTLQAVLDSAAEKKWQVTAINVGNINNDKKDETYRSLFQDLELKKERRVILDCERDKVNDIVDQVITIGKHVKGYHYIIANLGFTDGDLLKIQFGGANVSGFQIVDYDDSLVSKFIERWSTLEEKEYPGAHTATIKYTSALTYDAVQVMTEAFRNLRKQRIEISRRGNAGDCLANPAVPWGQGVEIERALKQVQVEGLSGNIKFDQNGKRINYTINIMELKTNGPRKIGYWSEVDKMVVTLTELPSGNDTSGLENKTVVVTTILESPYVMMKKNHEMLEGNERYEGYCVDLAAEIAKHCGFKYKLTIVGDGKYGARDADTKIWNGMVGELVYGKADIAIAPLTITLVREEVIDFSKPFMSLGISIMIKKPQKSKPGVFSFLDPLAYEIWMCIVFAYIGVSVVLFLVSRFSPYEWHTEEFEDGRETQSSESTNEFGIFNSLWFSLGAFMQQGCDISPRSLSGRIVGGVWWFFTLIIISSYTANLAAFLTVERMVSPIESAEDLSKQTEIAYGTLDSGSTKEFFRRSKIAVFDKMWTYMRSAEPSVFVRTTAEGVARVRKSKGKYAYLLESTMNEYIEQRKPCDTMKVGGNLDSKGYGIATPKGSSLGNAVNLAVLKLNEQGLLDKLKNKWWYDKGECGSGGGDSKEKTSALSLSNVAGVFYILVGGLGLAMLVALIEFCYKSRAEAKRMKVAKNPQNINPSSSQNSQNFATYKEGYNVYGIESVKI
Glutamate receptor ionotropic, AMPA (Rattus norvegicus, UniProt P19491+P19492+P19493+P19490), sequence (P19492 whole entry): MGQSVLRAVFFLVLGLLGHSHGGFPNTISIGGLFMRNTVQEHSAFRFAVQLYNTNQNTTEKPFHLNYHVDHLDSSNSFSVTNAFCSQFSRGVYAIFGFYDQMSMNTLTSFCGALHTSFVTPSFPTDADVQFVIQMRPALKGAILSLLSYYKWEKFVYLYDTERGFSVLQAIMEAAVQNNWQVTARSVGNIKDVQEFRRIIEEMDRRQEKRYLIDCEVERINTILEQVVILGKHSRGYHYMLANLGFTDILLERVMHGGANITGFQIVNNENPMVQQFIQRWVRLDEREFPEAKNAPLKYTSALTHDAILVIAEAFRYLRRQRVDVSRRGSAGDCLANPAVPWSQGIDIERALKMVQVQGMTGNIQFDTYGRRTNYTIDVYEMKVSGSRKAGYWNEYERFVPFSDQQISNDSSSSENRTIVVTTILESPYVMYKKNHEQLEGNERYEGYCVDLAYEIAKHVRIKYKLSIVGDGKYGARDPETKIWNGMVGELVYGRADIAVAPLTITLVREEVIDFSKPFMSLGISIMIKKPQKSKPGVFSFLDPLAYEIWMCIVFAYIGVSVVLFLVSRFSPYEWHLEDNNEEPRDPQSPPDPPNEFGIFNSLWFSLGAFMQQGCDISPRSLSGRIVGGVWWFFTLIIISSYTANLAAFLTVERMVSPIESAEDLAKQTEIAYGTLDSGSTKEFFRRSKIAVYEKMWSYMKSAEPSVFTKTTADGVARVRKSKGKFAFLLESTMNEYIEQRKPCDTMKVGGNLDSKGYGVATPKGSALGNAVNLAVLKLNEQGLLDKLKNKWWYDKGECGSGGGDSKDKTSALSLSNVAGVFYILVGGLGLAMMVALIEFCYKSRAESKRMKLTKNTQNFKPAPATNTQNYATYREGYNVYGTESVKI
Glutamate receptor ionotropic, AMPA (Rattus norvegicus, UniProt P19491+P19492+P19493+P19490), sequence (P19493 whole entry): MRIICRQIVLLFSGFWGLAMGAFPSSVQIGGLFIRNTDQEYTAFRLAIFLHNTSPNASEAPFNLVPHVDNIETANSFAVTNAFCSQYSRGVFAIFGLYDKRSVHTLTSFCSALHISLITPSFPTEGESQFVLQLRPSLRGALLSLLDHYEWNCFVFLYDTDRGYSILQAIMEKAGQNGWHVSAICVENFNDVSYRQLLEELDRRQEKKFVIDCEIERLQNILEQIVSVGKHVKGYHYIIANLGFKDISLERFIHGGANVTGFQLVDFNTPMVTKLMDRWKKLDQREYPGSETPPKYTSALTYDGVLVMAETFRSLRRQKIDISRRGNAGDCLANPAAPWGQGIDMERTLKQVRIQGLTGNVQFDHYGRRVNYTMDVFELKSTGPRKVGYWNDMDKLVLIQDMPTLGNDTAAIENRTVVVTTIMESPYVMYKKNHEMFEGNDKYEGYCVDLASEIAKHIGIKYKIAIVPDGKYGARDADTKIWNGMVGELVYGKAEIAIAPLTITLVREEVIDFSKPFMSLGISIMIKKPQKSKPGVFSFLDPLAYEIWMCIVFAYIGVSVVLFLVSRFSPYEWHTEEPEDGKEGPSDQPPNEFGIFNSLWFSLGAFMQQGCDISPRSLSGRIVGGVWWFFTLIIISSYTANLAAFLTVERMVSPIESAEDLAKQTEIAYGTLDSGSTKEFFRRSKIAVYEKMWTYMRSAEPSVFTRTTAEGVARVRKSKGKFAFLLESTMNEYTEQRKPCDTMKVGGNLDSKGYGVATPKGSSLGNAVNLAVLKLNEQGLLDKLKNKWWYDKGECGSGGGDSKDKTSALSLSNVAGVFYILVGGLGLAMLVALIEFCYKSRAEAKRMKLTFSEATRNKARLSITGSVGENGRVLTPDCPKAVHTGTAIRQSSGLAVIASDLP
Glutamate receptor ionotropic, AMPA (Rattus norvegicus, UniProt P19491+P19492+P19493+P19490), sequence (P19490 whole entry): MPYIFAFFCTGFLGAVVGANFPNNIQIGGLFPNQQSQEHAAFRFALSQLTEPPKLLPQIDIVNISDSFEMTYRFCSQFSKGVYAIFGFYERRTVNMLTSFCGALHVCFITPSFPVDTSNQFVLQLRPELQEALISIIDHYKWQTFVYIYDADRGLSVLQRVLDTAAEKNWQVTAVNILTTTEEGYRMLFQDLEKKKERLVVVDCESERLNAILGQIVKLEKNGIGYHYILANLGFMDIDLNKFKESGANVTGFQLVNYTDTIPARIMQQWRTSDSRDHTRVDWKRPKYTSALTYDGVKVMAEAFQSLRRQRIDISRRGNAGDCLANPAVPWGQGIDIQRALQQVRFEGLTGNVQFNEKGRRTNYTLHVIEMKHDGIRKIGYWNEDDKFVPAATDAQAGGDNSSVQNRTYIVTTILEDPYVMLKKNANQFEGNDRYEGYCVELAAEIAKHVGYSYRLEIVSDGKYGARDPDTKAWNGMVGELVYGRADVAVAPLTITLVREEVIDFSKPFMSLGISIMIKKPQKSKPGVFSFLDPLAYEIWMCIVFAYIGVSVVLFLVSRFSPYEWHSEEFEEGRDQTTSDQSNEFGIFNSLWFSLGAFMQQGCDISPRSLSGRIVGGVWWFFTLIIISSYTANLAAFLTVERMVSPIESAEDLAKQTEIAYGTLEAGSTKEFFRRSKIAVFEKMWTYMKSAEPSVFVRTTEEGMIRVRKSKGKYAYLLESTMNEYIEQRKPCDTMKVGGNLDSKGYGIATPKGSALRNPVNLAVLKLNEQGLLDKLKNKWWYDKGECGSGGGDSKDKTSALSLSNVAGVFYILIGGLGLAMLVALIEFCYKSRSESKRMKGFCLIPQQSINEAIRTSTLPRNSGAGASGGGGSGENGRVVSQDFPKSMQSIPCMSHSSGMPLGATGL
Type: cell-based

Question: With `NCCCNCCCCNCCCNC(=O)c1cc2ccccc2[nH]1` as the compound, how does the IC50 read?
Answer: Not Active

The compounds below were run against Glutamate receptor ionotropic, AMPA (Rattus norvegicus, UniProt P19490+P19491+P19492+P19493) (assay: Inhibition of kainate-induced currents of rat ionotropic glutamate receptor AMPA expressed in Xenopus laevis oocytes). Details: not given.
Type: cell-based, Oocyte

Question: `CCCC(=O)N[C@@H](Cc1ccccc1)C(=O)NCCCNCCCCNCCCN` was tested. Which pIC50 did it give?
Answer: 6.37

Question: `CCCC(=O)N1C[C@@H](Oc2ccc3ccccc3c2)C[C@H]1C(=O)NCCCNCCCCNCCCN` was tested. Which pIC50 did it give?
Answer: 5.98

Question: `CCCC(=O)N[C@H](Cc1ccc(O)cc1)C(=O)NCCCNCCCCNCCCN` was tested. Which pIC50 did it give?
Answer: 7.15

Question: `CCCC(=O)N[C@@H](CCc1ccccc1)C(=O)NCCCNCCCCNCCCN` was tested. Which pIC50 did it give?
Answer: 6.77

Question: `CCCC(=O)N[C@@H](Cc1c[nH]c2ccccc12)C(=O)NCCCNCCCCNCCCN` was tested. Which pIC50 did it give?
Answer: 6.52

Question: How did the pIC50 turn out when `CCCC(=O)NC1(C(=O)NCCCNCCCCNCCCN)CCc2ccccc2C1` (stereo not drawn) was run?
Answer: 6.60

Question: How did the pIC50 turn out when `CCCC(=O)N[C@@H](Cc1ccc(O)cc1)C(=O)NCCCNCCCCNCCCN` [PHILANTHOTOXIN 343] was run?
Answer: 6.89

Question: How did the pIC50 turn out when `CCCC(=O)N[C@@H](Cc1ccc(-c2ccccc2)cc1)C(=O)NCCCNCCCCNCCCN` was run?
Answer: 7.10

Question: How did the pIC50 turn out when `CCCC(=O)N1C[C@H](OCc2ccccc2)C[C@H]1C(=O)NCCCNCCCCNCCCN` was run?
Answer: 6.59

Question: With `CCCC(=O)N1CCC(C(=O)NCCCNCCCCNCCCN)(c2ccccc2)CC1` as the compound, how does the pIC50 read?
Answer: 5.88

Question: How did the pIC50 turn out when `CCCC(=O)N[C@H](C(=O)NCCCNCCCCNCCCN)C(c1ccccc1)c1ccccc1` was run?
Answer: 6.52

Question: With `CCCC(=O)N1c2ccccc2CC1C(=O)NCCCNCCCCNCCCN` (stereo not drawn) as the compound, how does the pIC50 read?
Answer: 5.86

Question: With `CCCC(=O)N1Cc2ccccc2C[C@H]1C(=O)NCCCNCCCCNCCCN` as the compound, how does the pIC50 read?
Answer: 6.43

Question: `CCCC(=O)N[C@H](C(=O)NCCCNCCCCNCCCN)c1ccccc1` was tested. Which pIC50 did it give?
Answer: 6.49

Question: How did the pIC50 turn out when `CCCC(=O)NC1(C(=O)NCCCNCCCCNCCCN)Cc2ccccc2C1` was run?
Answer: 6.72

Question: With `CCCC(=O)N[C@@H](Cc1ccc2ccccc2c1)C(=O)NCCCNCCCCNCCCN` as the compound, how does the pIC50 read?
Answer: 7.00

Question: `CCCC(=O)N1Cc2ccc(O)cc2CC1C(=O)NCCCNCCCCNCCCN` (stereo not drawn) was tested. Which pIC50 did it give?
Answer: 6.66
